Literature values in patent US20230051463A1, “Methotrexate Dosage Form” (ROS Therapeutics ApS, priority 2020, published 2023).
Like-named read-outs stand apart in the source and are kept apart here.

Key:
[1] = oral

SMILES | solubility in water | AUC(0-24) Geometric LS Mean ([1]; Methotrexate 10 mg) | Cmax Geometric LS Mean ([1]; Methotrexate 10 mg) | AUC(0-24) Geometric LS Mean ([1]; Methotrexate 15 mg) | Cmax Geometric LS Mean ([1]; Methotrexate 15 mg) | AUC(0-24) Geometric LS Mean ([1]; Methotrexate 20 mg) | Cmax Geometric LS Mean ([1]; Methotrexate 20 mg) | AUC(0-24) Geometric LS Mean ([1]; Methotrexate 25 mg) | Cmax Geometric LS Mean ([1]; Methotrexate 25 mg)
CN(Cc1cnc2nc(N)nc(N)c2n1)c1ccc(C(=O)N[C@@H](CCC(=O)[O-])C(=O)[O-])cc1.[Na+].[Na+] [Methotrexate disodium] | freely soluble |  |  |  |  |  |  |  | 
CN(Cc1cnc2nc(N)nc(N)c2n1)c1ccc(C(=O)N[C@@H](CCC(=O)O)C(=O)O)cc1 [Methotrexate] | practically insoluble |  |  |  |  |  |  |  | 
CN(Cc1cnc2nc(N)nc(N)c2n1)c1ccc(C(=O)N[C@@H](CCC(=O)O)C(=O)O)cc1 [Oral MTX] |  | 1223.7 ng·h/mL | 247.2 ng/mL | 1752.0 ng·h/mL | 349.4 ng/mL | 1927.2 ng·h/mL | 440.4 ng/mL | 1987.8 ng·h/mL | 423.5 ng/mL
